From US20150183822A1, “ANGIOTENSIN-CONVERTING-ENZYME INHIBITING DIPEPTIDE” (YAMAKI Co., Ltd., priority 2012, published 2015)
Like-named read-outs stand apart in the source and are kept apart here. Values belong to the molecule of their own block, whether it stands above or below them. Where a SMILES comes first, the peptide text is derived from it.

Target: T1, angiotensin converting enzyme (ACE) (Oryctolagus cuniculus, UniProt P12822)
T1 construct: resulting supernatant was purified with hydroxyapatite to obtain 1 unit/mg protein of angiotensin converting enzyme liquid; tissue Sigma Co., Ltd. (alternative source); host or cells: rabbit lung (acetone powder extract purified with hydroxyapatite)
T1 sequence (P12822 34-1310): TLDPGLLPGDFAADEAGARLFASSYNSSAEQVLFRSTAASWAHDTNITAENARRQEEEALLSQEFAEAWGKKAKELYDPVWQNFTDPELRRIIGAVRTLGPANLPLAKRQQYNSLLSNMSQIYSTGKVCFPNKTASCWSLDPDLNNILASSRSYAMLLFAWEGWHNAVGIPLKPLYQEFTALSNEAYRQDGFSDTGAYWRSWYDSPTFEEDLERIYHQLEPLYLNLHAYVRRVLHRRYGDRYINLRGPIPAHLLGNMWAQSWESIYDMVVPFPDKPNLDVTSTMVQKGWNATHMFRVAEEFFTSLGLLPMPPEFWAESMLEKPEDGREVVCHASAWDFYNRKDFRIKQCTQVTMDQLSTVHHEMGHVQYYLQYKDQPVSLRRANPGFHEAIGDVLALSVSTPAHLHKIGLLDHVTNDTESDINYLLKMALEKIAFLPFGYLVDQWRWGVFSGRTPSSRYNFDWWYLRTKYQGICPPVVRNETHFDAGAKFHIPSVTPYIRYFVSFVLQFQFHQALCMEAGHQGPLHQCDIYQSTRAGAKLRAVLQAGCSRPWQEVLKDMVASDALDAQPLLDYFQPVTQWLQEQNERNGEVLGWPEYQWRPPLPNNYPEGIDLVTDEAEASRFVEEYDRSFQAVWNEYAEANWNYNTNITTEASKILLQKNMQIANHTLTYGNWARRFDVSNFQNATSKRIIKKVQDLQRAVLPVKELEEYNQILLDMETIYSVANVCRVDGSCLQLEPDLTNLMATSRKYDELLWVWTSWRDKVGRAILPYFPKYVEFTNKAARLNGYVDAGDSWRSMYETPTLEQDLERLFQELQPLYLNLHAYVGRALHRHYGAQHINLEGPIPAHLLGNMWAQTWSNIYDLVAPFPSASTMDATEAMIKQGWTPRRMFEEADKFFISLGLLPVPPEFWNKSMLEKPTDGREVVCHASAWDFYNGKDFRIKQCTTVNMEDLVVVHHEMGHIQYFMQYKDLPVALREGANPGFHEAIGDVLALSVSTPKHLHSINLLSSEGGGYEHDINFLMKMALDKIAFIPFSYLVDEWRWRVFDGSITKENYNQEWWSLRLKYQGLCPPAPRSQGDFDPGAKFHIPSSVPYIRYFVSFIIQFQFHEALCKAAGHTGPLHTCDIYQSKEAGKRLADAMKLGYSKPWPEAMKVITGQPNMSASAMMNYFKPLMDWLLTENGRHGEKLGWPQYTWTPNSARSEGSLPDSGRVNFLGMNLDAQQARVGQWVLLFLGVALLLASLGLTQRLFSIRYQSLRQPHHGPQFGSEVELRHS
Assay: ACE inhibitory activity (Test Example 1, Cheung and Cushman's method, hippuryl histidyl leucine substrate)
Assay type: biochemical, rabbit
Conditions: for The contribution rate in KATSUOBUSHI peptide: contribution of each dipeptide in KATSUOBUSHI peptide; for ACE inhibitory activity value, comparison in words: comparison among dipeptides of Table 30
Procedure: ACE inhibitory activity was measured as below.
5 g of rabbit lung acetone powder was dissolved in 50 mL of 0.1M sodium borate buffer (pH8.3), centrifuged under the condition of 40000G and for 40 minutes and resulting supernatant was purified with hydroxyapatite to obtain 1 unit/mg protein of angiotensin converting enzyme liquid. Purified ACE derived from rabbit lung (Sigma Co., Ltd., 0.25 unit), alternatively, was used.
0.030 mL of the various concentrations of the dipeptide composition solutions were taken into test tubes, respectively, and then, 0.1 mL of the angiotensin converting enzyme liquid as above was added into the test tubes to react with the composition at 37° C. for 5 minutes. Subsequently, 0.25 mL of hippuryl histidyl leucine (PEPTIDE Lab., Bz-Gly-His-Leu.H2O, the final concentration of 5 mM, including 300 mM of NaCl) as a substrate was added to the test tubes to react with the enzyme at 37° C. for 30 minutes. 0.25 mL of 1N hydrochloric acid, then, was added to the test tube to terminate the reaction, 1.5 mL of ethyl acetate was added to the test tube and stirred with the vortex mixer for 20 seconds, followed by centrifuging (3000 rotations, for 5 minutes) and 1 mL of ethyl acetate layer was isolated.
The inhibitory rate was calculated according to the following formula.
The inhibitory=[1−(A−a)/(B−b)]×100

[1] = isolated peptides, Table 11, read-out: ACE inhibitory activity (IC50: μM)
[2] = isolated peptides, Table 9, read-out: ACE inhibitory activity (IC50: μM)
[3] = Table 30, dipeptides of the invention and other dipeptides, read-out: ACE inhibitory value IC50
[4] = isolated peptides, Table 10, read-out: ACE inhibitory activity (IC50: μM)

SMILES: NCC(=O)N[C@@H](Cc1c[nH]c2ccccc12)C(=O)O [Glycine-tryptophan, glycine-tryptophan] (H-Gly-Trp-OH)
The contribution rate in KATSUOBUSHI peptide: 0.366% | IC50 [1]: 30 µM

SMILES: CC[C@H](C)[C@H](N)C(=O)N[C@@H](Cc1ccccc1)C(=O)O [Isoleucine-phenylalanine, reference compound] (H-Ile-Phe-OH; N-terminus and C-terminus assumed)
IC50 [3]: 930 µM

SMILES: NC(=O)C[C@H](N)C(=O)N[C@@H](Cc1c[nH]c2ccccc12)C(=O)O [Asparagine-tryptophan, asparagine-tryptophan] (H-Asn-Trp-OH; N-terminus and C-terminus assumed)
The contribution rate in KATSUOBUSHI peptide: 0.099%

SMILES: CC(C)[C@H](N)C(=O)N[C@@H](Cc1c[nH]c2ccccc12)C(=O)O [Valine-tryptophan, valine-tryptophan] (H-Val-Trp-OH)
contribution rate in KATSUOBUSHI peptide, in words: high | ACE inhibitory activity value, comparison in words: much higher value than the other dipeptides | The contribution rate in KATSUOBUSHI peptide: 4.031%

SMILES: C[C@H](N)C(=O)N[C@@H](Cc1c[nH]c2ccccc12)C(=O)O [Alanine-tryptophan, alanine-tryptophan] (H-Ala-Trp-OH; N-terminus and C-terminus assumed)
contribution rate in KATSUOBUSHI peptide, in words: high | The contribution rate in KATSUOBUSHI peptide: 0.672% | IC50 [1]: 10 µM

SMILES: CSCC[C@H](N)C(=O)N[C@@H](Cc1c[nH]c2ccccc12)C(=O)O [Methionine-tryptophan, methionine-tryptophan] (H-Met-Trp-OH; N-terminus and C-terminus assumed)
ACE inhibitory activity value, comparison in words: much higher value than the other dipeptides | The contribution rate in KATSUOBUSHI peptide: 0.343% | IC50 [4]: 3.8 µM

SMILES: CC(C)C[C@H](N)C(=O)N[C@@H](Cc1c[nH]c2ccccc12)C(=O)O [Leucine-tryptophan, leucine-tryptophan]
IC50 [2]: 23 µM

SMILES: NC(=O)CC[C@H](N)C(=O)N[C@@H](Cc1c[nH]c2ccccc12)C(=O)O [Glutamine-tryptophan, glutamine-tryptophan] (H-Gln-Trp-OH; N-terminus and C-terminus assumed)
The contribution rate in KATSUOBUSHI peptide: 0.048% | IC50 [1]: 32.6 µM

SMILES: CC[C@H](C)[C@H](N)C(=O)N[C@@H](Cc1c[nH]c2ccccc12)C(=O)O [Isoleucine-tryptophan, isoleucine-tryptophan]
contribution rate in KATSUOBUSHI peptide, in words: high | ACE inhibitory activity value, comparison in words: much higher value than the other dipeptides | The contribution rate in KATSUOBUSHI peptide: 2.040% | IC50 [4]: 2 µM

Next, values leading:

IC50 [2]: 11 µM
SMILES: CC(C)[C@H](N)C(=O)N[C@@H](Cc1ccc(O)cc1)C(=O)O [Valine-tyrosine, valine-tyrosine] (H-Val-Tyr-OH; N-terminus and C-terminus assumed)

IC50 [3]: 420 µM
SMILES: CC(C)[C@H](N)C(=O)N1CCC[C@H]1C(=O)O [Valine-proline, reference compound] (H-Val-Pro-OH)

IC50 [2]: 25.1 µM
SMILES: CC(C)C[C@H](NC(=O)[C@@H](N)Cc1c[nH]c2ccccc12)C(=O)O [Tryptophan-leucine, tryptophan-leucine] (H-Trp-Leu-OH; N-terminus and C-terminus assumed)

IC50 [2]: 33.1 µM
SMILES: CC[C@H](C)[C@H](NC(=O)[C@@H](N)Cc1c[nH]c2ccccc12)C(=O)O [Tryptophan-isoleucine, tryptophan-isoleucine] (H-Trp-Ile-OH; N-terminus and C-terminus assumed)

The contribution rate in KATSUOBUSHI peptide: 0.021% | IC50 [4]: 57 µM
SMILES: N[C@@H](Cc1c[nH]c2ccccc12)C(=O)N[C@@H](Cc1ccc(O)cc1)C(=O)O [Tryptophan-tyrosine, tryptophan-tyrosine] (H-Trp-Tyr-OH; N-terminus and C-terminus assumed)

The contribution rate in KATSUOBUSHI peptide: 0.054% | IC50 [4]: 36.5 µM
SMILES: CSCC[C@H](NC(=O)[C@@H](N)Cc1c[nH]c2ccccc12)C(=O)O [Tryptophan-methionine, tryptophan-methionine] (H-Trp-Met-OH)

IC50 [2]: 580 µM
SMILES: NC(=O)C[C@H](NC(=O)[C@@H](N)Cc1c[nH]c2ccccc12)C(=O)O [Tryptophan-asparagine, tryptophan-asparagine] (H-Trp-Asn-OH; N-terminus and C-terminus assumed)

The contribution rate in KATSUOBUSHI peptide: 0.099% | IC50 [1]: 22.1 µM
SMILES: N[C@@H](CO)C(=O)N[C@@H](Cc1c[nH]c2ccccc12)C(=O)O [Serine-tryptophan, serine-tryptophan] (H-Ser-Trp-OH; N-terminus and C-terminus assumed)
